US20210386367A1, “DEVICES AND SYSTEMS FOR GASTROINTESTINAL MICROBIOME DETECTION AND MANIPULATION” (Progenity, Inc., priority 2018, published 2021)
≈ marks a conversion by molar mass, not a printed value. Like-named read-outs stand apart in the source and are kept apart here.

Key:
[1] = test system: Bacteroides non fragilis; experiment: Agar dilution MIC, 29 clinical isolates; format: cell-based, Bacteroides spp.; conditions: for Mode: modal MIC
[2] = test system: Bacteroides spp. spontaneous mutants; experiment: Broth microdilution MIC of spontaneous mutants; format: cell-based
Experimental: Select isolates were subcultured onto agar containing drug at the selection concentration, were identified by MALDI, and were frozen for broth microdilution MIC testing as described below.
To determine whether colonies growing on drug selection plates had elevated MIC values to the selecting antibiotic, susceptibility testing by broth microdilution was conducted on isolated mutants following methodology recommended by CLSI (1), (2), and (3) “Performance Standards for Antimicrobial Susceptibility Testing; Twenty-Eighth Informational Supplement.,” CLSI document M100-S28, 2018.
All wells in columns 2 through 12 of a standard 96-well microdilution plate (Costar 3795) were filled with 150 μL of the appropriate diluent. Then, 300 μL of the test agents were added to the wells of column 1 of the plates at […] the highest final concentration to be tested. Serial two-fold dilutions were made across the rows through column 11 using the Biomek 2000. The wells of column 12 contained no drug and served as the growth control wells. This plate served as the “mother plate” from which selected MIC assay plates or “daughter plates” were made.
Daughter plates for anaerobic organisms were transferred to a Bactron II anaerobic chamber (Sheldon Manufacturing Inc., Cornelius, Oreg.) to reduce for 1 hour prior to inoculation. The inoculum for each organism was prepared in the anaerobic chamber and dispensed into sterile disposable reservoirs. Inoculation was completed using a multichannel pipette to transfer 10 μL of the inoculum into each well of the daughter plate. This yielded a final cell concentration in the daughter plates of approximately 1×10^6 CFU/mL.

[3] = test system: Prevotella spp. clinical isolates; experiment: MIC distribution against clinical isolates; format: cell-based; conditions: 30 Prevotella spp. isolates
[4] = test system: S. pneumonia; experiment: Spontaneous mutation frequency and mutation prevention concentration (MPC); format: cell-based; conditions: S. pneumoniae ATCC 49619
Description: (§1) As used herein, “spontaneous mutation frequency” refers to the rate at which mutations arise in a bacterium that can lead to resistance to develop to an antimicrobial agent. “Mutation prevention concentration” or “MPC” refers to the lowest concentration of antimicrobial agent above which the selective proliferation of resistant mutants is expected to occur only rarely.

[5] = test system: Escherichia coli; experiment: as above; format: cell-based
Description: as §1

[6] = test system: S. pyogenes; experiment: as above; format: cell-based; conditions: S. pyogenes ATCC 49399
Description: as §1

[7] = test system: S. agalactiae; experiment: as above; format: cell-based; conditions: S. agalactiae ATCC 13813
Description: as §1

[8] = test system: B. vulgatus; experiment: as above; format: cell-based; conditions: B. vulgatus ATCC 8482
Description: as §1

[9] = test system: E. coli MMX 1312; experiment: Time-kill assay; format: cell-based, Escherichia coli; conditions: 2×, 4×, 8× MIC; 2, 6, 24 hr
[10] = test system: SIBO Bacteria; conditions: cited from earlier work
[11] = 29 Bacteroides non-fragilis clinical isolates
[12] = B. fragilis ATCC 25285, selected on rifaximin 4X MIC, Colony A
[13] = B. fragilis ATCC 25285, selected on rifaximin 4X MIC, Colony B
[14] = B. fragilis ATCC 25285, selected on rifaximin 8X MIC, Colony A
[15] = B. fragilis ATCC 25285, selected on rifaximin 8X MIC, Colony B
[16] = B. ovatus MMX 3503, selected on rifaximin 4X MIC, Colony A
[17] = B. ovatus MMX 3503, selected on rifaximin 4X MIC, Colony B
[18] = B. ovatus MMX 3503, selected on rifaximin 8X MIC, Colony A
[19] = B. ovatus MMX 3503, selected on rifaximin 8X MIC, Colony B
[20] = B. vulgatus ATCC 8482, selected on ceftriaxone 4X MIC, Colony A
[21] = B. vulgatus ATCC 8482, selected on ceftriaxone 4X MIC, Colony B
[22] = B. vulgatus ATCC 8482, selected on rifaximin 4X MIC, Colony A
[23] = B. vulgatus ATCC 8482, selected on rifaximin 4X MIC, Colony B
[24] = B. vulgatus ATCC 8482, selected on rifaximin 8X MIC, Colony A
[25] = B. vulgatus ATCC 8482, selected on rifaximin 8X MIC, Colony B
[26] = B. vulgatus ATCC 8482 Parent (Table 50)
[27] = B. vulgatus ATCC 8482 Parent (Table 54)
[28] = E. coli ATCC 25922, rifaximin selection 4X MIC, 32 μg/mL
[29] = E. coli ATCC 25922, rifaximin selection 8X MIC, 64 μg/mL
[30] = E. coli ATCC 35218, rifaximin selection 4X MIC, 32 μg/mL, estimated by counting a quarter of the plate
[31] = E. coli ATCC 35218, rifaximin selection 8X MIC, 64 μg/mL, estimated by counting a quarter of the plate
[32] = E. coli MMX 1312, rifaximin selection 4X MIC, 16 μg/mL
[33] = E. coli MMX 1312, rifaximin selection 8X MIC, 32 μg/mL
[34] = rifaximin selection 4X MIC, 0.5 μg/mL
[35] = rifaximin selection 8X MIC, 1 μg/mL
[36] = rifaximin selection 4X MIC, 1 μg/mL
[37] = rifaximin selection 8X MIC, 2 μg/mL

For `Cc1ncc([N+](=O)[O-])n1CCO` [MTZ], the “% I” value [1, 11] was 3%, the “% S” value [1, 11] was 97% and the MIC50 [1, 11] was 0.5 µg/mL (≈ 2.92 µM). For the same compound, the MIC90 [1, 11] was 2 µg/mL (≈ 11.7 µM), the Mode [1, 11] was 0.5 µg/mL and the MIC [2, 12] was 0.25 µg/mL. It also gave an MIC [2, 13] of 0.5 µg/mL, an MIC [2, 14] of 0.5 µg/mL and an MIC [2, 15] of 0.25 µg/mL. For the same compound, the MIC ([2]; B. fragilis ATCC 25285 Parent) was 0.25 µg/mL, the MIC [2, 16] was 2 µg/mL and the MIC [2, 17] was 0.5 µg/mL. The MIC [2, 18] was 1 µg/mL, the MIC [2, 19] was 2 µg/mL and the MIC ([2]; B. ovatus MMX 3503 Parent) was 0.5 µg/mL. It also gave an MIC [2, 20] of 1 µg/mL, an MIC [2, 21] of 1 µg/mL and an MIC [2, 22] of 1 µg/mL. The MIC [2, 23] was 1 µg/mL, the MIC [2, 24] was 1 µg/mL and the MIC [2, 25] was 1 µg/mL. For the same compound, the MIC [2, 26] was 1 µg/mL, the MIC [2, 27] was 1 µg/mL and the “Cumulative percentage of isolates inhibited at MIC” value ([3]; MIC 0.5 μg/mL) was 46.7%. The “Number of test isolates at MIC” value ([3]; MIC 0.5 μg/mL) was 8, the “Cumulative percentage of isolates inhibited at MIC” value ([3]; MIC 1 μg/mL) was 76.7% and the “Number of test isolates at MIC” value ([3]; MIC 1 μg/mL) was 9. The “Cumulative percentage of isolates inhibited at MIC” value ([3]; MIC 4 μg/mL) was 83.3%, the “Number of test isolates at MIC” value ([3]; MIC 4 μg/mL) was 2 and the “Cumulative percentage of isolates inhibited at MIC” value ([3]; MIC 8 μg/mL) was 96.7%. The “Number of test isolates at MIC” value ([3]; MIC 8 μg/mL) was 4, the “Cumulative percentage of isolates inhibited at MIC” value ([3]; MIC >32 μg/mL) was 100.0% and the “Number of test isolates at MIC” value ([3]; MIC >32 μg/mL) was 1.

With `CO[C@H]1/C=C/O[C@@]2(C)Oc3c(C)c(O)c4c(O)c(c5c(nc6cc(C)ccn65)c4c3C2=O)NC(=O)/C(C)=C\C=C\[C@H](C)[C@H](O)[C@@H](C)[C@@H](O)[C@@H](C)[C@H](OC(C)=O)[C@@H]1C` [rifaximin] the MIC50 [1] was 0.12 µg/mL (≈ 0.153 µM), the MIC90 [1] was 0.5 µg/mL (≈ 0.636 µM) and the “relative activity among drugs tested” value [1] was “most active”. The MIC50 [1, 11] was 0.12 µg/mL (≈ 0.153 µM), the MIC90 [1, 11] was 0.5 µg/mL (≈ 0.636 µM) and the MIC range [1, 11] was 0.03 to 0.5 µg/mL. The Mode [1, 11] was 0.12 µg/mL, the MIC [2, 12] was greater than 64 µg/mL and the MIC [2, 13] was 64 µg/mL. For the same compound, the MIC [2, 14] was greater than 64 µg/mL, the MIC [2, 15] was greater than 64 µg/mL and the MIC ([2]; B. fragilis ATCC 25285 Parent) was 0.12 µg/mL. It also gave an MIC [2, 16] greater than 64 µg/mL, an MIC [2, 17] greater than 64 µg/mL and an MIC [2, 18] greater than 64 µg/mL. The MIC [2, 19] was greater than 64 µg/mL, the MIC ([2]; B. ovatus MMX 3503 Parent) was 0.25 µg/mL and the MIC [2, 20] was 0.06 µg/mL. The MIC [2, 21] was 0.12 µg/mL, the MIC [2, 22] was 32 µg/mL and the MIC [2, 23] was 64 µg/mL. It also gave an MIC [2, 24] greater than 64 µg/mL, an MIC [2, 25] greater than 64 µg/mL and an MIC [2, 26] of 0.06 µg/mL. The MIC [2, 27] was 0.06 µg/mL, the “broth microdilution MIC of selected colonies relative to parent strain” value ([2]; colonies selected at 4× and 8× the MIC) was “several-fold higher” and the MFC [4] was greater than 0.25 µg/mL. For the same compound, the MFC ([5]; E. coli ATCC 25922) was greater than 64 µg/mL, the “Average Count” value [5, 28] was “TNTC” and the “Count 1” value [5, 28] was “TNTC”. The “Count 2” value [5, 28] was “TNTC”, the “Spontaneous Mutation Frequency” value ([5]; E. coli ATCC 25922, rifaximin selection 4X MIC, 32 μg/mL, based on estimated count of >500 average CFU) was >2.24 × 10^−8 and the “Average Count” value [5, 29] was “TNTC”. The “Count 1” value [5, 29] was “TNTC”, the “Count 2” value [5, 29] was “TNTC” and the “Spontaneous Mutation Frequency” value ([5]; E. coli ATCC 25922, rifaximin selection 8X MIC, 64 μg/mL, based on estimated count of >500 average CFU) was >2.24 × 10^−8. For the same compound, the MFC ([5]; E. coli ATCC 35218) was greater than 64 µg/mL, the “Spontaneous Mutation Frequency” value ([5]; E. coli ATCC 35218, rifaximin selection 4X MIC, 32 μg/mL) was 2.37 × 10^−8 and the “Average Count” value [5, 30] was 688^2 CFU. The “Count 2” value [5, 30] was 600^1 CFU, the “Spontaneous Mutation Frequency” value ([5]; E. coli ATCC 35218, rifaximin selection 8X MIC, 64 μg/mL) was 1.15 × 10^−8 and the “Average Count” value [5, 31] was 332^1 CFU. For the same compound, the “Count 1” value [5, 31] was 360^1 CFU, the “Count 2” value [5, 31] was 304^1 CFU and the MFC ([5]; E. coli MMX 1312) was greater than 32 µg/mL. The “Average Count” value [5, 32] was “TNTC”, the “Count 1” value [5, 32] was “TNTC” and the “Count 2” value [5, 32] was “TNTC”. The “Spontaneous Mutation Frequency” value ([5]; E. coli MMX 1312, rifaximin selection 4X MIC, 16 μg/mL, based on estimated count of >500 average CFU) was >2.06 × 10^−8, the “Average Count” value [5, 33] was “TNTC” and the “Count 1” value [5, 33] was “TNTC”. The “Count 2” value [5, 33] was “TNTC”, the “Spontaneous Mutation Frequency” value ([5]; E. coli MMX 1312, rifaximin selection 8X MIC, 32 μg/mL, based on estimated count of >500 average CFU) was >2.06 × 10^−8 and the MFC [6] was greater than 1 µg/mL. For the same compound, the “Average Count” value [6, 34] was 83 CFU, the “Count 1” value [6, 34] was 78 CFU and the “Count 2” value [6, 34] was 87 CFU. For the same compound, the “Spontaneous Mutation Frequency” value [6, 34] was 1.51 × 10^−8, the “Average Count” value [6, 35] was 84 CFU and the “Count 1” value [6, 35] was 78 CFU. For the same compound, the “Count 2” value [6, 35] was 89 CFU, the “Spontaneous Mutation Frequency” value [6, 35] was 1.53 × 10^−8 and the MFC [7] was greater than 2 µg/mL. For the same compound, the “Average Count” value [7, 36] was 159 CFU, the “Count 1” value [7, 36] was 180 CFU and the “Count 2” value [7, 36] was 137 CFU. The “Spontaneous Mutation Frequency” value [7, 36] was 2.77 × 10^−8, the “Average Count” value [7, 37] was 115 CFU and the “Count 1” value [7, 37] was 110 CFU. For the same compound, the “Count 2” value [7, 37] was 120 CFU, the “Spontaneous Mutation Frequency” value [7, 37] was 2.00 × 10^−8 and the MFC [8] was greater than 1 µg/mL. The “Average Count” value [8, 34] was 5 CFU, the “Count 1” value [8, 34] was 6 CFU and the “Count 2” value [8, 34] was 4 CFU. The “Spontaneous Mutation Frequency” value [8, 34] was 8.70 × 10^−10, the “Average Count” value [8, 35] was 4 CFU and the “Count 1” value [8, 35] was 2 CFU. The “Count 2” value [8, 35] was 5 CFU, the “Spontaneous Mutation Frequency” value [8, 35] was 6.96 × 10^−10 and the “Cumulative percentage of isolates inhibited at MIC” value ([3]; MIC 32 μg/mL) was 100.0%. For the same compound, the “Number of test isolates at MIC” value ([3]; MIC 32 μg/mL) was 1, the “Number of test isolates at MIC” value ([3]; MIC […]) was 12 and the “time-kill kinetics outcome (bactericidal = ≥3 log reduction in CFU per mL)” value [9] was “Regrowth was also observed for all concentrations”.

For “piperacillin/tazobactam [piperacillin-tazobactam]”, the “activity against SIBO organisms” value [10] is listed as “active against SIBO organisms”.
